How the values were obtained:
Botrvtis cinerea = test: Example B-1: Action against Botrytis cinerea, fungal growth assay; type: cell-based; settings: 0.002% active ingredient, PDB broth, 24° C., photometric after 3-4 days
Method: (§1) Action against Botrvtis cinerea—fungal growth assay Conidia of the fungus from cryogenic storage was directly mixed into nutrient broth (PDB potato dextrose broth). After placing a (DMSO) solution of the test compounds (0.002% active ingredient) into a microtiter plate (96-well format) the nutrient broth containing the fungal spores was added. The test plates were incubated at 24° C. and the inhibition of growth was measured photometrically after 3-4 days. The activity of a compound was expressed as fungal growth inhibition (0=no growth inhibition, ratings of 80% to 99% mean good to very good inhibition, 100%=complete inhibition).

[1] = system: Mycosphaerella arachidis (Cercospora arachidicola); test: Example B-2: Action against Mycosphaerella arachidis, fungal growth assay; type: cell-based; settings: 0.002% active ingredient, PDB broth, 24° C., photometric after 6-7 days
Method: as §1, with “Action Against Mycosphaerella arachidis (Early Leaf Spot of Groundnut; Cercospora arachidicola [fanamorph])—Fungal Growth Assay” for “Action against Botrvtis cinerea—fungal growth assay”, “storage were” for “storage was”, “after 6-7” for “after 3-4”

Septoria tritici = test: Example B-3: Action against Septoria tritici, fungal growth assay; type: cell-based; settings: Zymoseptoria tritici; 0.002% active ingredient; PDB broth, 24° C., photometric after 72 hrs
Method: as §1, with “Action Against Septoria tritici—Fungal Growth Assay” for “Action against Botrvtis cinerea—fungal growth assay”, “storage were” for “storage was”, “was determined” for “was measured”, “after 72 hrs.” for “after 3-4 days.”

[2] = system: Monographella nivalis (anamorph: Fusarium nivale, Microdochium nivale); test: Example B-4: Action against Monographella nivalis, fungal growth assay; type: cell-based; settings: 0.002% active ingredient, PDB broth, 24° C., photometric after 72 hrs
Method: Action Against Monographella nivalis (anamorph: Fusarium nivale, Microdochium nivale; Snow Mould)—Fungal Growth Assay Conidia of the fungus from cryogenic storage were directly mixed into nutrient broth (PDB potato dextrose broth). After placing a DMSO-solution of the test compounds (0.002% active ingredient) into a microtiter plate (96-well format) the nutrient broth containing the fungal spores was added. The test plates were incubated at 24° C. and the inhibition of growth was measured photometrically after 72 hrs (0=no growth inhibition, ratings of 80% to 99% mean good to very good inhibition, 100%=complete inhibition).

[3] = system: Erysiphe graminis f. sp. tritici; test: Example B-5: Action against Erysiphe graminis f. sp. tritici (wheat powdery mildew), wheat leaf segments; type: in vivo; settings: Blumeria graminis, foliar, 168 h, 0.02% active ingredient, 7 days after inoculation, read-out: preventive fungicidal activity (inhibition)
Method: Action Against Erysiphe graminis f. sp. tritici (Wheat Powdery Mildew) Wheat leaf segments were placed on agar in multiwell plates (24-well format) and sprayed with test solutions (0.02% active ingredient). After drying, the leaf disks were inoculated with a spore suspension of the fungus. After appropriate incubation the activity of a compound was assessed 7 days after inoculation as preventive fungicidal activity.

Puccinia recondita = test: Example B-10: Puccinia recondita / wheat / leaf disc preventative (comparative); type: in vivo; settings: 8 dpi
Method: Puccinia recondita/Wheat/Leaf Disc Preventative (Brown Rust) Wheat leaf segments were placed on agar in multiwell plates (24-well format) and sprayed with test solutions. After drying, the leaf disks were inoculated with a spore suspension of the fungus. After appropriate incubation the activity of a compound was assessed 8 dpi (days after inoculation) as preventive fungicidal activity.

[4] = system: Phaeosphaeria nodorum (Septoria nodorum); test: Example B-11: Phaeosphaeria nodorum / wheat / leaf disc preventative (comparative); type: in vivo; settings: 4 dpi
Method: Phaeosphaeria nodorum (Septoria nodorum)/Wheat/Leaf Disc Preventative (Glume Blotch) Wheat leaf segments were placed on agar in a multiwell plate (24-well format) and sprayed with test solutions. After drying, the leaf disks were inoculated with a spore suspension of the fungus. After appropriate incubation the activity of a compound was assessed 4 dpi (days after inoculation) as preventive fungicidal activity.

Alternaria solani = test: Example B-13: Alternaria solani / tomato / leaf disc (comparative); type: in vivo; settings: 4 dpi
Method: Alternaria solani/Tomato/Leaf Disc (Early Blight) Tomato leaf disks were placed on water agar in multiwell plates (24-well format) and sprayed with test solutions. After drying, the leaf disks were inoculated with a spore suspension of the fungus. After appropriate incubation the activity of a compound was assessed 4 dpi (days after inoculation) as preventive fungicidal activity.

[5] = system: Mycosphaerella arachidis (Cercospora arachidicola); test: Example B-15: Mycosphaerella arachidis / liquid culture (comparative); type: cell-based; settings: 24° C., photometric after 6-7 days, read-out: inhibition of growth
Method: (§2) Mycosphaerella arachidis (Cercospora arachidicola)/Liquid Culture (Early Leaf Spot) Conidia of the fungus from cryogenic storage were directly mixed into nutrient broth (PDB potato dextrose broth). After placing a (DMSO) solution of the test compounds into a microtiter plate (96-well format) the nutrient broth containing the fungal spores was added. The test plates were incubated at 24° C. and the inhibition of growth is measured photometrically after 6-7 days.

[6] = system: Mycosphaerella praminicola (Seotoria tritici); test: Example B-16: Mycosphaerella graminicola (Septoria tritici) / liquid culture (comparative); type: cell-based; settings: 96 h, 24° C., photometric after 4 days, read-out: inhibition of growth
Method: as §2, with “praminicola (Seotoria tritici)/Liquid” for “arachidis (Cercospora arachidicola)/Liquid”, “(Septoria Blotch)” for “(Early Leaf Spot)”, “4” for “6-7”

[7] = system: Monopraphella nivalis (Microdochium nivale); test: Example B-18: Monographella nivalis (Microdochium nivale) / liquid culture (comparative); type: cell-based; settings: 24° C., photometric after 4-6 days, read-out: inhibition of growth
Method: as §2, with “Monopraphella nivalis (Microdochium nivale)/Liquid” for “Mycosphaerella arachidis (Cercospora arachidicola)/Liquid”, “(Foot Rot Cereals” for “(Early Leaf Spot)”, “4-6” for “6-7”

- melting point: 135 to 141 °C
Structure (SMILES): CON(C(=O)c1cn(C)nc1C(F)F)C(C)c1ccc(Cl)cc1Cl (stereo not drawn) [Compound 1.023]
- inhibition at 0.002 % strength (Botrvtis cinerea): ≥ 80%
- inhibition at 0.002 % strength [1]: ≥ 80%
- inhibition at 0.002 % strength (Septoria tritici): ≥ 80%
- inhibition at 0.002 % strength [2]: ≥ 50%
- inhibition at 0.02 % strength [3]: ≥ 80%
- preventive fungicidal activity (Puccinia recondita; 20 ppm): 0
- preventive fungicidal activity (Puccinia recondita; 60 ppm): 50
- preventive fungicidal activity (Puccinia recondita; 200 ppm): 70
- preventive fungicidal activity ([4]; 20 ppm): 70
- preventive fungicidal activity ([4]; 60 ppm): 90
- preventive fungicidal activity ([4]; 200 ppm): 90
- preventive fungicidal activity (Alternaria solani; 20 ppm): 90
- preventive fungicidal activity (Alternaria solani; 60 ppm): 100
- preventive fungicidal activity (Alternaria solani; 200 ppm): 100
- inhibition at 6 ppm ([5]; 6 ppm): 100%
- inhibition at 20 ppm ([5]; 20 ppm): 100%
- inhibition at 60 ppm ([5]; 60 ppm): 100%
- inhibition at 6 ppm ([6]; 6 ppm): 100%
- inhibition at 20 ppm ([6]; 20 ppm): 100%
- inhibition at 60 ppm ([6]; 60 ppm): 100%
- inhibition at 6 ppm ([7]; 6 ppm): 0%
- inhibition at 20 ppm ([7]; 20 ppm): 0%
- inhibition at 60 ppm ([7]; 60 ppm): 50%
